# Biological target: T1, 5-HT 1D beta receptors (Homo sapiens, UniProt P28222)
# T1 construct: expressed in transfected cells; host or cells: CHO cells
# Assay: 5-HT 1D beta binding ([3H]-5-HT displacement, homogenised CHO cells)
# Conditions: not given
# Experimental: 5-HT 1D ALPHA AND 5-HT 1D BETA BINDING.
# CHO cells expressing 5-HT 1D beta receptors (4×10^7 cells/ml) are homogenised in Tris buffer and stored in 1.5 ml aliquots.
# 0.4 ml of a cell suspension was incubated with [^3 H]-5-HT (4 nM) in Tris Mg HCl buffer (pH 7.7) and test drug, at 37° C. for 45 minutes. Each test drug was tested at 10 concentrations (0.01 mM to 0.3 nM final concentration), with non-specific binding defined using 0.01 mM 5-HT. The total assay volume was 0.5 ml. Incubation was stopped by rapid filtration using a Packard Filtermate (filters pre-soaked in 0.3% polyethylenimine) and radioactivity measured by Topcount scintillation counting. The pKi values were calculated from the IC50 generally by an iterative leas squares curve fitting programme.
# T1 sequence (P28222 whole entry): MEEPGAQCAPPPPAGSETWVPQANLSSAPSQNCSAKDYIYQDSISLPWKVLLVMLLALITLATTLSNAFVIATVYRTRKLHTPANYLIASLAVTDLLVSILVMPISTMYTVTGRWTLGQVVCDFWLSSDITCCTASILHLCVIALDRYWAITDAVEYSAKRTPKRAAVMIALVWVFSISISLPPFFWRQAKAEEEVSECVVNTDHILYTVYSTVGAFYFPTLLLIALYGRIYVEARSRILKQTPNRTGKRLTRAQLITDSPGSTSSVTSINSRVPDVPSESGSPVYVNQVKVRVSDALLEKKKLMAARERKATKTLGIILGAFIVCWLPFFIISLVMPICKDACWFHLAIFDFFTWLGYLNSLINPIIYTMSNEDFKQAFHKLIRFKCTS
row,SMILES,Ki
1,"CCN1CCC2(CC1)COc1cc3c(cc12)N(C(=O)c1ccc(-c2ccc(-c4nnc(C)o4)cc2C)cc1)CC3 [Example 26, 1'-Ethyl-5-[2'-methyl-4'-(5-methyl-1,3,4-oxadiazol-2-yl)biphenyl-4-carbonyl]-2,3,6,7-tetrahydrospiro[furo[2,3-f]indole-3,4'-piperidine]]",< 0.01 µM

# Same assay, conditions: CHO cells expressing 5-HT 1D beta receptors; [3H]-5-HT (4 nM); 37° C. for 45 minutes; pKi calculated from the IC50; read-out: pKi values at 5-HT 1D beta receptors (converted)
row,SMILES,Ki
1,"CCN1CCC2(CC1)COc1cc3c(cc12)N(C(=O)c1ccc(-c2ccc(-c4noc(C)n4)cc2C)cc1)CC3 [Example 4, 1'-Ethyl-5-(2'-methyl-4'-(5-methyl-1,2,4-oxadiazol-3-yl)biphenyl-4-carbonyl)-2,3,6,7-tetrahydrospiro[furo[2,3-f]indole-3,4'-piperidine]]",< 0.01 µM
2,"Cc1nnc(-c2ccc(-c3ccc(C(=O)N4CCc5cc6c(cc54)C4(CCN(C)CC4)CO6)cc3)c(C)c2)o1 [Example 5, 1'-Methyl-5-(2'-methyl-4'-(5-methyl-1,3,4-oxadiazol-2-yl)biphenyl-4-carbonyl)-2,3,6,7-tetrahydrospiro[furo[2,3-f]indole-3,4'-piperidine]]",< 0.01 µM
3,"Cc1cc(-c2noc(N(C)C)n2)ccc1-c1ccc(C(=O)N2CCc3cc4c(cc32)C2(CCN(C)CC2)CO4)cc1 [Example 6, 5-(4'-(5-Dimethylamino-1,2,4-oxadiazol-3-yl)-2'-methylbiphenyl-4-carbonyl)-1'-methyl-2,3,6,7-tetrahydrospiro[furo[2,3-f]indole-3,4'-piperidine]]",< 0.01 µM
4,"Cc1nc(-c2ccc(-c3ccc(C(=O)n4ccc5cc6c(cc54)C4(CCN(C)CC4)CO6)cc3)c(C)c2)no1 [Example 8, 2,3-Dihydro-1'-methyl-5-(2'-methyl-4'-(5-methyl-1,2,4-oxadiazol-3-yl)biphenyl-4-carbonyl)spiro[furo[2,3-f]indole-3,4'-piperidine)]",< 0.01 µM
5,"Cc1nnc(-c2ccc(-c3ccc(C(=O)n4ccc5cc6c(cc54)C4(CCN(C)CC4)CO6)cc3)c(C)c2)o1 [Example 18, 2,3-Dihydro-1'-methyl-5-(2'-methyl-4'-(5-methyl-1,3,4-oxadiazol-2-yl)biphenyl-4-carbonyl)spiro[furo[2,3-f]indole-3,4'-piperidine]]",< 0.01 µM
6,"COC(=O)c1ccc(C)c(-c2ccc(C(=O)N3CCc4cc5c(cc43)C3(CCN(C)CC3)CO5)cc2)c1 [Example 23, 5-(5'-Methoxycarbonyl-2'-methylbiphenyl-4-carbonyl)-1'-methyl-2,3,6,7-tetrahydrospiro[furo[2,3-f]indole-3,4'-piperidine]]",< 0.01 µM
7,"Cc1nnc(-c2ccc(-c3ccc(C(=O)N4CCc5cc6c(cc54)C4(CCO6)CCN(C)CC4)cc3)c(C)c2)o1 [Example 40, 1'-Methyl-6-[2°-methyl-4'-(5-methyl-1,3,4-oxadiazol-2-yl)biphenyl-4-carbonyl]-2,3,7,8-tetrahydrospiro[4H-pyrano[2,3-f]indole-4,4'-piperidine]]",< 0.01 µM
8,"Cc1cc(-c2ccc(-c3ccc(C(=O)N4CCc5cc6c(cc54)C4(CCN(C)CC4)CO6)cc3)c(C)c2)no1 [Example 45, 1'-Methyl-5-(2'-methyl-4'-(5-methylisoxazol-3-yl)biphenyl-4-carbonyl)-2,3,6,7-tetrahydrospiro[furo[2,3-f]indole-3,4'-piperidine]]",< 0.01 µM
9,"Cc1cc(-c2cnccn2)ccc1-c1ccc(C(=O)N2CCc3cc4c(cc32)C2(CCN(C)CC2)CO4)cc1 [Example 51, 1'-Methyl-5-(2'-methyl-4'-pyrazinylbiphenyl-4-carbonyl)-2,3,6,7-tetrahydrospiro[furo[2,3-f]indole-3,4'-piperidine]]",< 0.01 µM
10,"Cc1cc(-c2cncn2C)ccc1-c1ccc(C(=O)N2CCc3cc4c(cc32)C2(CCN(C)CC2)CO4)cc1 [Example 54, 1'-Methyl-5-[2'-methyl-4'-(1-methylimidazol-5-yl)biphenyl-4-carbonyl]-2,3,6,7-tetrahydrospiro[furo[2,3-f]indole-3,4'-piperidine]]",< 0.01 µM
11,"Cc1cc(-c2noc(CO)n2)ccc1-c1ccc(C(=O)N2CCc3cc4c(cc32)C2(CCN(C)CC2)CO4)cc1 [Example 55, 5-[4'-(5-Hydroxymethyl-1,2,4-oxadiazol-3-yl)-2'-methylbiphenyl-4-carbonyl]-1'-methyl-2,3,6,7-tetrahydrospiro[furo[2,3-f]indole-3,4'-piperidine]]",< 0.01 µM
12,"Cc1cc(-c2nccnn2)ccc1-c1ccc(C(=O)N2CCc3cc4c(cc32)C2(CCN(C)CC2)CO4)cc1 [Example 57, 1'-Methyl-5-[2'-methyl-4'-(1,2,4-triazin-3-yl)biphenyl-4-carbonyl]-2,3,6,7-tetrahydrospiro[furo[2,3-f]indole-3,4'-piperidine]]",< 0.01 µM
13,"CCOC(=O)Nc1ccc(-c2ccc(C(=O)N3CCc4cc5c(cc43)C3(CCN(CC)CC3)CO5)cc2)c(C)c1 [Example 66, 5-[4'-(Ethoxycarbonylamino)-2'-methylbiphenyl-4-carbonyl]-1'-ethyl-2,3,6,7-tetrahydrospiro[furo[2,3-f]indole-3,4'-piperidine]]",< 0.01 µM
